Square brackets hold non-standard residues; d marks the D form. Peptide text beside a SMILES is read from it. Mpa = O=C(O)CCS Where only a bound is given, the exact number is not on record here.

One experiment has as its target Cyclin-dependent kinase 2/cyclin E1 (Homo sapiens, UniProt P24864+P24941). Put plainly: Inhibition of CDK2/cyclin E1 (unknown origin) incubated for 60 mins in presence of ATP by ADP-Glo luminescent Kinase Assay. For orientation: In ADP-Glo the light output rises with the ADP produced.
In the case of `CC(C)C[C@H](NC(=O)[C@@H](NC(=O)c1ccccc1OCc1ccccc1)C(C)C)C(=O)N[C@@H](CO)C(=O)O`, the IC50 was 0.216 nM.

For `CC(C)C[C@H](NC(=O)[C@@H](NC(=O)c1ccccc1O)C(C)C)C(=O)N[C@@H](CO)C(=O)O`, the 50% inhibitory concentration (IC50) was determined as 0.216 nM.

In the next experiment the target is CDK9/cyclin T1 (Homo sapiens, UniProt O60563+P50750). The experiment is described as follows: Inhibition of CDK9/cyclin T1 (unknown origin) assessed as inhibition constant.
Chain of CDK9/cyclin T1 (O60563 whole entry, looked up): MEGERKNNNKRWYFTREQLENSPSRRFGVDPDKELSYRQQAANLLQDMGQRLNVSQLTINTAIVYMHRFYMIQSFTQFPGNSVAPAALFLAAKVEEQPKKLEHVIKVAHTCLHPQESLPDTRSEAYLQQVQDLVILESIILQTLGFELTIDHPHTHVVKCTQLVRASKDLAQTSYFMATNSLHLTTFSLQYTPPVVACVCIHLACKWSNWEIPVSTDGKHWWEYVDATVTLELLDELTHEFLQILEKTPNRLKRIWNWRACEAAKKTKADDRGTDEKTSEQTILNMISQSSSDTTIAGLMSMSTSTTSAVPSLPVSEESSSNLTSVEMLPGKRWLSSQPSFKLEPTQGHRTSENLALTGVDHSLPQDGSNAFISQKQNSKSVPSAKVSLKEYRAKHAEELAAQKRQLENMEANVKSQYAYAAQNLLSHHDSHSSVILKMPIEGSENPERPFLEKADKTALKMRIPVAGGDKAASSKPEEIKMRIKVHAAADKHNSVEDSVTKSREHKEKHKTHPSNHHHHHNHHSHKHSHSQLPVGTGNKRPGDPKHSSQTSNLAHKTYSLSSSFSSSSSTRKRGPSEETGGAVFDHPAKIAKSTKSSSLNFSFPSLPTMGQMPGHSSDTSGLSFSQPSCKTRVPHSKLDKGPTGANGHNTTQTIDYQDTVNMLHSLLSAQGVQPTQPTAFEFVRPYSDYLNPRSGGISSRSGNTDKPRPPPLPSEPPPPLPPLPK
Chain of CDK9/cyclin T1 (P50750 whole entry, looked up): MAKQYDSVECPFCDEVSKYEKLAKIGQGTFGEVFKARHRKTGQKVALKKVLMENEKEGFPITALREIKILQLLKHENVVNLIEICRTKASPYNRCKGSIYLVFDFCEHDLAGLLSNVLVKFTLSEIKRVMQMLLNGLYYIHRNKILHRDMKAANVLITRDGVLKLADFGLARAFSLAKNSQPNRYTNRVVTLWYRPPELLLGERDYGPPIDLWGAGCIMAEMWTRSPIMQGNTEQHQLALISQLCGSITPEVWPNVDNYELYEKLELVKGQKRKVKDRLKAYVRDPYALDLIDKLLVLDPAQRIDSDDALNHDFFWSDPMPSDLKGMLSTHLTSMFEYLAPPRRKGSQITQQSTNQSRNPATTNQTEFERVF
For the compound `CC(C)C[C@H](NC(=O)[C@@H](NC(=O)c1cccc(OCc2ccccc2)c1)C(C)C)C(=O)N[C@@H](CO)C(=O)O`, the Ki is 3.3 nM.

Turning to `CC(C)C[C@H](NC(=O)[C@@H](NC(=O)c1ccc(OCc2ccccc2)cc1)C(C)C)C(=O)N[C@@H](CO)C(=O)O`, the inhibition constant (Ki) was found to be 3.3 nM.

On to `CC(C)C[C@H](NC(=O)[C@@H](NC(=O)CCS)C(C)C)C(=O)N[C@@H](CO)C(=O)O` ([Mpa]VLS-OH), for which the inhibitory constant (Ki) was found to be 3.3 nM.

The target of a further experiment is CDK2/Cyclin A2 (Homo sapiens, UniProt P20248+P24941). Put plainly: Inhibition of CDK2/cyclin A2 (unknown origin) using histone as substrate in presence of ATP by luminescent ADP detection assay.
For the compound `CC(C)[C@H](NC(=O)[C@H](Cc1ccccc1)NC(=O)[C@@H](Cc1ccc(O)cc1)NC(=O)CC12CC3CC(CC(C3)C1)C2)C(=O)N[C@@H](CC(N)=O)C(=O)N[C@@H](CCCN=C(N)N)C(=O)N1CCC[C@@H]1C(=O)N[C@@H](CCCN=C(N)N)C(=O)N[C@@H](CCCN=C(N)N)C(N)=O`, the half-inhibitory concentration (IC50) was less than 20 nM.

As for `CCOc1ccc(C[C@@H](NC(=O)CC23CC4CC(CC(C4)C2)C3)C(=O)N[C@@H](Cc2ccccc2)C(=O)N[C@H](C(=O)N[C@@H](CC(N)=O)C(=O)N[C@@H](CCCCN)C(=O)N2CCC[C@@H]2C(=O)N[C@@H](CCCN=C(N)N)C(=O)N[C@@H](CCCN=C(N)N)C(N)=O)C(C)C)cc1`, the concentration for half-maximal inhibition (IC50) was less than 20 nM.

As to `CCCCC/N=C(/N)N/N=C/c1c[nH]c2ccc(OC(C)C)cc12`, the IC50 was less than 20 nM.

In the case of `CCCCCNC(=N)N/N=C/c1c[nH]c2ccc(O)cc12`, the half-inhibitory concentration (IC50) was less than 20 nM.

`CCCCC/N=C(/N)N/N=C/c1c[nH]c2ccc(OCC=C(C)C)cc12`: the IC50 is less than 20 nM.

A word on the IC50: it is the midpoint of a concentration-inhibition curve. The term Ki denotes a measure of affinity in units of concentration, obtained from inhibition or displacement.

(Values after BindingDB's records for PubMed 32707525 (n/a, 2020).)
